Reference: patent publication US11591323B2, “Muscarinic agonists as non-steroidal and non-opioid analgesics and methods of use thereof” (Barry University, priority 2019, dated 2023)
Entries after “also recorded” stand apart in the source; their conditions may differ. Where two headings read alike, the source gives them in different places.

Assays:
Format in all cases: cell-based
Design in all cases: host or cells: CHO cells, stably transfected
M1 muscarinic receptor = target: T1, M1 muscarinic receptor (Homo sapiens, UniProt P11229); assay: stimulation of cAMP, M1 CHO cells (M1Gs)
T1 sequence (P11229 1-460): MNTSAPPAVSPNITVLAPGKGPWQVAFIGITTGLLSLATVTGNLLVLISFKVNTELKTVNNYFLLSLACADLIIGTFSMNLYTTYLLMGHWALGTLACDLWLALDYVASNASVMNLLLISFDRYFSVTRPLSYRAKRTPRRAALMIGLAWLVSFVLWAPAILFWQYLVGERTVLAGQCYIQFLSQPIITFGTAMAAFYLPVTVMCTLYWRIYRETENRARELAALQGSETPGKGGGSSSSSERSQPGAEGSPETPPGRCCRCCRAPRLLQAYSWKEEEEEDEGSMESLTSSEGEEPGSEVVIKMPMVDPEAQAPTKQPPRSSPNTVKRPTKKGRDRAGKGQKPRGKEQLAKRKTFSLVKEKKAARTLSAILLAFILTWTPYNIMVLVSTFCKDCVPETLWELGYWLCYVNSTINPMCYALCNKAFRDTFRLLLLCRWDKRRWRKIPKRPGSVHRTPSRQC
Description: (§1) Since activation of phospholipase C (PLC) via M2 and M4 receptors is weak, cells were transferred with G15 G-protein to facilitate coupling.
(§2) To determine level of cAMP, cells in suspension were pre-incubated for 1 h with 0.4 μM [^3H]adenine, washed, and incubated for 10 min in the presence of isobutylmethylxanthine and 10 μM forskolin. […] Incubation was ended by addition of 0.2 ml of 2.5 M HCl to the samples. Samples were applied to alumina columns (1.5 g of alumina per column), washed with 2 ml ammonium acetate (pH=7.0) and eluted from columns with 4 ml ammonium acetate and measured by liquid scintillation spectrometry. […] The incubation was stopped by addition of 0.5 ml of chloroform methanol HCl mixture (2:1:0.1). After separation of water and organic phases, 0.6 ml of water phase was applied to Dowex columns (1.5 g of Dowex per column), washed by 20 ml of 60 mM ammonium formate/5 mM sodium borate buffer and eluted from columns with 4 ml of 1M ammonium formate/0.1 formic acid buffer and measured by liquid scintillation spectrometry.
(§3) Measurements of the production of cAMP and inositol phosphates: Levels of second messengers cAMP and inositol phosphates were determined in radiochemical chromatography assays as described previously. To determine level of cAMP, cells in suspension were pre-incubated for 1 h with 0.4 μM [^3H]adenine, washed, and incubated for 10 min in the presence of isobutylmethylxanthine and 10 μM forskolin. […] Incubation was ended by addition of 0.2 ml of 2.5 M HCl to the samples. Samples were applied to alumina columns (1.5 g of alumina per column), washed with 2 ml ammonium acetate (pH=7.0) and eluted from columns with 4 ml ammonium acetate and measured by liquid scintillation spectrometry. […] For this purpose, new CHO cell lines stably expressing promiscuous G15 G-protein and M2 or M4 receptor were generated by transfection with pCMV/hygro vector and hygromycin selection. To determine the rate of formation of inositol phosphates IPX, suspended cells were pre-incubated with 0.1 μM [^3H]myo-inositol for 60 min, washed, and incubated with 10 mM LiCl for 15 min. […] The incubation was stopped by addition of 0.5 ml of chloroform methanol HCl mixture (2:1:0.1). After separation of water and organic phases, 0.6 ml of water phase was applied to Dowex columns (1.5 g of Dowex per column), washed by 20 ml of 60 mM ammonium formate/5 mM sodium borate buffer and eluted from columns with 4 ml of 1M ammonium formate/0.1 formic acid buffer and measured by liquid scintillation spectrometry.
(§4) For bi-phasic response, curves were inhibitory and stimulatory phase were fitted separately. Operational Model of Functional Agonism
(§5) [formula] where y is functional response at concentration of tested compound x, EMAX is maximal response of the system, KA is equilibrium dissociation constant and nH is slope factor. Eq. 5 was fitted to data from functional experiments. Eq. 5 was fitted to data by the two-step procedure described earlier. […] In the second step, Eq. 5 with EMAX fixed to the value determined in the first step was fitted to individual experimental data sets. Relative Intrinsic Activity
(§6) Muscarinic receptors are also able to stimulate non-preferential signalling pathways.

M5 muscarinic receptor [1] = target: T2, M5 muscarinic receptor (Homo sapiens, UniProt P08912); assay: stimulation of cAMP, M5 CHO cells (M5Gs); conditions: for RAi / E′MAX / τ / Δlog(τ/KA): M5Gs (↑cAMP); for RAi: Table 8, relative to carbachol; for E′MAX / τ: Table 8; for Δlog(τ/KA): Table 8, to carbachol
T2 sequence (P08912 1-532): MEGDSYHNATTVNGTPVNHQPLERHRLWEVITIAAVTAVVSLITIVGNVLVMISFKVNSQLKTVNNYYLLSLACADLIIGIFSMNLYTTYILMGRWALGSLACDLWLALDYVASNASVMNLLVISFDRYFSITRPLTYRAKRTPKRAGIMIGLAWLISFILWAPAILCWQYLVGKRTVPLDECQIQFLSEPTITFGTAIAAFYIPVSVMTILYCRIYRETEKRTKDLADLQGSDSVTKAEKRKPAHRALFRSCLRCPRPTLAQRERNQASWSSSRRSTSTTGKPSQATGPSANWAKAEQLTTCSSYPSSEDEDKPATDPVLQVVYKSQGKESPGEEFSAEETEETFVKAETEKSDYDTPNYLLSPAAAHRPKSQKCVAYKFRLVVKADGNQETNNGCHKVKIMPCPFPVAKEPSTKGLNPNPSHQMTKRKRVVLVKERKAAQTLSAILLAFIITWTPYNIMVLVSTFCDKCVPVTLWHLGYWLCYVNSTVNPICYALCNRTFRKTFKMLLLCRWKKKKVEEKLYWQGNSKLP
Description: as §2, §3, §4, §5, §6

M5 muscarinic receptor [2] = target: T2, M5 muscarinic receptor; assay: inhibition of forskolin-stimulated cAMP, M5 CHO cells (M5Gi); conditions: for Emax: CHO; for effect on forskolin-stimulated production of cAMP: M5, non-preferential response, in words; for RAi: Table 8, relative to carbachol; for Δlog(τ/KA): Table 8, to carbachol; for Gi over Gq+G15 bias: at M5 receptors
Description: as §1, §2, §3, §4, §5, §6

[3] = M1Gs (↑cAMP), Table 8, relative to carbachol
[4] = M5Gi (↓cAMP), Table 8, read-out: E′MAX
[5] = M5Gi (↓cAMP), Table 8, read-out: pEC50 (converted)
[6] = M5Gi (↓cAMP), Table 8, read-out: pKA (converted)

Row | SMILES | RAi (M1 muscarinic receptor; [3]) | RAi (M5 muscarinic receptor [1]) | Emax (M5 muscarinic receptor [2]; [4]) [%] | effect on forskolin-stimulated production of cAMP (M5 muscarinic receptor [2]) | τ (M5 muscarinic receptor [2]; M5Gi (↓cAMP), Table 8) | RAi (M5 muscarinic receptor [2]; M5Gi (↓cAMP)) | Δlog(τ/KA) (M5 muscarinic receptor [2]; M5Gi (↓cAMP)) | EC50 (M5 muscarinic receptor [2]; [5]) [µM] | Kd (M5 muscarinic receptor [2]; [6]) [µM] | Gi over Gq+G15 bias (M5 muscarinic receptor [2]) | E′MAX (M5 muscarinic receptor [1]) [fold increase] | τ (M5 muscarinic receptor [1]) | Δlog(τ/KA) (M5 muscarinic receptor [1]) | also measured
1 | C1=CCN(Cc2cccs2)CC1.Cl [Compound 6A, 1-[(thiophen-2-yl)methyl]-1,2,3,6-tetrahydropyridin-1-ium chloride] | 0 | 0 | 22 ± 2 | inhibited cAMP production | 0.31 ± 0.04 | 0.021 ± 0.002 | 1.70 ± 0.21 | 21.9 | 31.6 | about 10 fold |  |  |  | 
2 | C[N+](C)(C)CCOC(N)=O [carbachol, reference compound] |  |  |  | inhibited forskolin-stimulated production of cAMP at nanomolar concentrations | 0.24 ± 0.03 |  | 0 |  |  |  | 1.23 ± 0.03 | 0.10 ± 0.02 | 0 | increase of cAMP level (M5 muscarinic receptor [1]; M5, micromolar concentrations, in words): at micromolar concentrations it stimulated cAMP production; also recorded: increased cAMP level at micromolar concentrations; E′MAX (M5 muscarinic receptor [2]; M5Gi (↓cAMP), Table 8): 18 ± 1 % of inhibition
3 | C[N+]1(Cc2cccs2)CC=CCC1.[I-] (stereo not shown) [Compound 7A, 1-methyl-1-[(thiophen-2-yl)methyl]-1,2,3,6-tetrahydropyridin-1-ium iodide] | 0 | 0 | 34 ± 2 | inhibited cAMP production | 0.59 ± 0.02 | 0.026 ± 0.003 | 1.67 ± 0.18 | 31.6 | 50.1 | ~30 fold |  |  |  | 
4 | O=C1CCCN1CC#CCN1CCCC1 [oxotremorine, reference compound] |  | 6.62 ± 0.58 |  |  | 0.31 ± 0.03 | 6.44 ± 0.67 | −0.79 ± 0.06 |  |  |  | 1.22 ± 0.03 | 0.09 ± 0.02 | −0.82 ± 0.08 | EC50 (M1 muscarinic receptor): 11.2 µM; E′MAX (M1 muscarinic receptor): 1.77 ± 0.08 fold increase; Kd (M1 muscarinic receptor): 15.8 µM; RAi (M1 muscarinic receptor): 3.91 ± 0.22; Δlog(τ/KA) (M1 muscarinic receptor): −0.59 ± 0.06; τ (M1 muscarinic receptor): 0.38 ± 0.04; EC50 (M5 muscarinic receptor [1]): 3.8 µM; Kd (M5 muscarinic receptor [1]): 3.98 µM; EC50 (M5 muscarinic receptor [2]): 0.0708 µM; Kd (M5 muscarinic receptor [2]): 0.1 µM; Emax (M5 muscarinic receptor [2]): 22 ± 2%
